According to patent US20180064662A1 (THE GENERAL HOSPITAL CORPORATION, priority 2015, published 2018):

Experiments:
[1] = test system: human pancreatic cancers; experiment: HA and collagen-I staining of human PDAC surgical samples, patients with or without metformin; type: in vivo
Excerpt: Human samples of pancreatic cancer were obtained from the Massachusetts General Hospital tissue repository. Written informed consent from the donor or the next of kin was obtained for the use of these samples for research purposes. Tumors selected received no prior chemotherapy or radiation therapy before the surgical specimen was collected at the time of tumor resection. A total of 28 samples were randomly selected from this subset of samples. Body mass index was obtained for the respective sample. […] Paraffin sections were stained for collagen-I and HA as described below. Images were acquired using confocal microscopy and quantified using Matlab. Data were analyzed anonymously.
For analysis of frozen sections of mouse tumor tissues, the tumors were excised and frozen in optimal cutting temperature compound (Tissue-Tek). Transverse tumor sections, 10 μm thick, were immunostained with specific antibodies. To obtain mosaic images of tumor sections, an Olympus FV1000 confocal laser-scanning microscope was used. A 10× air objective acquired 1260-μm square tiles, and an automated stage scanned throughout the entire cross-section of tumor tissue. The imaged tiles were stitched into a final mosaic image using Olympus software. Antigen expression was quantified by measuring the area occupied by the stain of interest normalized by the area of DAPI-stained nuclei (i.e., unit less), and analyzed using a custom algorithm in MATLAB (The MathWorks). Identical settings and thresholds for analysis were used for all tumors. Antibodies used for immunofluorescence were the following: Collagen-I [LF-68 antibody, 1:50 dilution, provided by Dr Larry Fisher (NIDCR)]; Hyluronan (biotinylated hyaluronan proteoglycan fragment, 385911, Calbiochem, 1:200 dilution); αSMA (C6198 antibody, Sigma, 1:500 dilution); and F4/80 (MCA497A488 antibody, ABDserotec, 1:200 dilution). Cy3-, Cy5- or FITC-conjugated secondary antibodies were used for the detection of signals by confocal microscopy. Slides were counterstained with DAPI for nuclear staining.

[2] = test system: RAW 264.7 (mouse leukemic monocyte-macrophages); experiment: RAW 264.7 macrophages treated with metformin in vitro (qPCR, Western blot); type: cell-based
Procedure: Following treatment, cells were collected for RNA and protein extraction in order to perform subsequent analysis of gene expression of cytokines and polarization markers, and for analysis of signaling and metabolic pathways. […] Cells were collected for protein extraction for analysis of the activation of fibrosis-related pathways. […] The cells were fixed with 4% paraformaldehyde and blocked with 5% normal donkey serum for 1 h. They were incubated with the designated primary antibodies overnight at 4° C. then for 2 h with the appropriate secondary antibodies at RT. PBS was used for all washes and the stained samples were mounted with Prolong Gold with DAPI. Images were acquired using a confocal microscope. The antibodies used and image acquisition settings are described below. Both cell types were grown in Dulbecco's modified Eagle's medium (Sigma, St. Louis, Mo.) supplemented with 5% (v/v) heat inactivated fetal bovine serum (FBS; Sigma), 100 units/ml penicillin and streptomycin. Cells were cultured at 37° C. in a humidified atmosphere including 5% CO2.
Immediately following excision, tumor tissue was snap frozen and stored in liquid nitrogen. Total RNA was extracted and relative gene expression for macrophage M1/M2 markers was determined using a Sybr-green based standard protocol. In addition, total RNA was extracted and relative gene expression was determined using RT2 Profiler PCR Arrays system (Qiagen) on a Stratagene Mx3000P QPCR System using pre-made pathway-focused arrays (“Fibrosis”-Cat. Number: PAMM011Z; “Epithelial to Mesenchymal Transition (EMT)”-Cat. Number: PAMM090Z; “TGF-β signaling targets”-PAMM235Z; “Extracellular Matrix & Adhesion Molecules”-Cat. Number: PAMM013Z; and “Common cytokines ”-Cat. Number: PAMM021Z).
Each tumor sample was homogenized directly in lysis buffer for protein extraction. 20 ug of denatured protein per sample was loaded on 7%, 10% and 12% SDS-polyacrylamide gels. Antibodies used: phospho-p38 MAPKT^180/Y182 and p38; phospho-JNK (SAPK/JNK)^Thr183/Tyr185 and JNK; phospho-AKT^Ser473 and AKT, phospho-ERK(p44/42 MAPK)^T202/Y204 and ERK; phospho-NF-κB^Ser536 and NK-κB; p65^Ser536; phospho-Smad2^Ser465/467 and Smad2; phospho-IGF-I Receptor β^Tyr1135 and IGF; Phospho-IRS-1^Ser612 and IRS; IR; phpspho-stat3^Tyr705 and stat3; Phospho-AMPKα^Thr172 and Ampkα; phospho-Ampkβ^Ser108 and Ampk; phospho-ACC^Ser79 and ACC; Phospho-PDGF Receptor β^Tyr751 and PDGF Receptor β and snail, c-cadherin and vimentin, TGF-β, β-catenin, twist, LC3B. […] Quantification of protein expression relative to total receptor or β-actin was obtained using Image J software.

[3] = test system: pancreatic cancer; conditions: newly diagnosed pancreatic cancer cases, diabetic patients; cited from earlier work

## CN(C)C(=N)N=C(N)N [metformin, 3-(diaminomethylidene)-1,1-dimethylguanidine]
[1]; either body weight group
  collagen-I expression: no impact
[1]; overweight or obese patients, chemo/radiotherapy naive PDAC surgical samples
  levels of HA lower than in patients not taking metformin: 30%
[1]; patients of normal weight
  HA levels: no difference
[2]; ACC evident only in serum added media
  activation of AMPKα and ACC in macrophages: activation of AMPKα
[2]; concentrations lower than 0.2 mM, Western blot
  activation of STAT3, JNK, AKT and p38 in macrophages: reduced activation
[2]; metformin 0.05 mM, 48 h
  gene expression of M2 markers such as Arg-1 and IL-10: reduced M2 markers
[2]; metformin at doses higher than 0.2 mM
  gene expression of M1 and M2 markers: reduced both M1 and M2 markers
[3]
  reduced risk of death: 32%
